These are literature values, as cited in patent US20060074053A1, “Ophthalmic solution containing quinolone antimicrobial compound” (SANTEN PHARMACEUTICAL CO., LTD., priority 2003, published 2006).

For the series the following is noted: after instillation of ciprofloxacin-containing ophthalmic solution; Am. J. Ophthalmol., 117, pp 258-259 (1994).

SMILES strings stand for the structures.

On to `O=C(O)c1cn(C2CC2)c2cc(N3CCNCC3)c(F)cc2c1=O` [ciprofloxacin], for which the “precipitate on the surface of the eyes after instillation” value is “liberated as a precipitate on the surface of the eyes (corneal epithelium)”.
